From patent publication US11564899B2, “Therapy for transthyretin-associated amyloidosis” (SOM INNOVATION BIOTECH, S.L., priority 2011, dated 2023)

Legend:
Type in all cases: biochemical
[1] = biological target: T1, Recombinant Y78F TTR protein (Homo sapiens, UniProt P02766, Y98F); experiment: Kinetic turbidity assay of TTR fibril formation; conditions: Y78F TTR 0.4 mg/mL, RA=100*B/(A+B)
T1 construct: made in house
Experimental: Stocks of compounds assayed as inhibitors were dissolved in DMSO (spectrophotometry grade from Sigma) at 1.5 mM concentration. Working solutions were prepared by diluting the stock solution 1:4 in H2O/DMSO (2:1). In all cases, DMSO concentration was adjusted to 5% (v/v) in the final reaction assay mixture.
The assay comprises two stages, one stage where the Y78F protein is incubated together with the inhibitor during 30 minutes, and a second stage where fibril formation is induced by a change in pH and absorbance is measured along 1.5 h. Briefly, the assay was performed as follows:
First, the following solutions were prepared: Protein Y78F stock: 4 mg/mL in 20 mM phosphate, 100 mM KCl, pH 7.6. Incubation buffer: 10 mM phosphate, 100 mM KCl, 1 mM EDTA, pH 7.6. Dilution buffer: 400 mM sodium acetate, 100 mM KCl, 1 mM EDTA, pH 4.2.
Incubation buffer was then added up to a volume of 100 μL. The plate was incubated at 37° C. in a thermostated microplate reader with orbital shaking 15 s every minute for 30 min. A 100 μL portion of dilution buffer was dispensed to each well, and the mixture was incubated at 37° C. with shaking (15 s every min) in the microplate reader. Absorbance at 340 nm was monitored for 1.5 h at 1 min intervals. Data were collected and analyzed using Microsoft Excel software. All assays were done in duplicate.
After following the general procedure indicated above, time-course curves were obtained, from which the initial rates of fibril formation (V0) were calculated as the slopes of the linear increase of absorbance. […] Data were fitted to equation (1): V0=A+B*e^−C[I] (1), where V0 is the initial rate of fibril formation (in absorbance units per hour, Abs*h^−1), and [I] is the concentration of the inhibitor (μM). Adjustable parameters are A (Abs*h^−1), residual aggregation rate at high concentration of inhibitor; B (Abs*h^−1), amplitude or maximum decrease of initial rate of fibril formation; and C (μM^−1), the exponential constant. A+B is equal to the initial rate of fibril formation under the assay conditions in the absence of inhibitor. […]

[2] = biological target: T2, Recombinant V122I TTR protein (Homo sapiens, UniProt P02766, V142I); experiment: End-point turbidity assay (72 h) with V122I TTR; conditions: V122I 0.4 mg/mL
T2 construct: made in house
Experimental: Recombinant V122I TTR protein, which is an amyloidogenic variation of human TTR associated with Familial Amyloid Cardiomyopathy (FAC), was produced by following the same procedure described for the Y78F variant used in Example 1. Plasmid DNA expressing the V122I mutant was prepared by site-directed mutagenesis as reported for Y78F in Dolado et al (supra). but using the following primers: 5′-[…]-3′ and 5′-[…]-3′.
This assay is used for TTR variants with lower amyloidegenicity than the Y78F variant when the kinetic turbidity assay is not sensitive enough for accurate measurements. The procedure followed to test the inhibitors by this end-point assay at 72 h is reported in Dolado et al, (supra). V122I TTR was incubated with the inhibitor under the same conditions described above for the kinetic turbidity assay (Example 1), using V122I protein at a concentration of 0.4 mg/mL and three different concentrations of inhibitor: […], corresponding to 0.5×[protein], 1×[protein], and 3×[protein]. After acid induction (addition of dilution buffer), samples were incubated without shaking for 72 h at 37° C. and then homogenized by mixing to resuspend any fibrils present. Turbidity was measured at 340 nm and normalized to amyloidogenesis in the absence of inhibitor.
The inhibitory potency of the tested compounds was evaluated as the percentage of absorvance reduction of the inhibitor-containing samples when compared with the inhibitor-free control sample.
% Fibril reduction=100×(1-turbidity sample/turbidity blank), where turbidity sample is the turbidity measured in the presence of inhibitor, and turbidity blank is that in the absence of inhibitor.

[3] = tested on: plasma TTR tetramer (controls and TTR V30M carriers); conditions: human plasma (controls and V30M carriers pooled), 4 M urea IEF, relative to non-treated plasma of same donor
Experimental: The preparations were subjected to native PAGE (5% acrylamide) and the gel band containing TTR was excised and applied to an IEF gel (5% acrylamide). IEF was carried out in semi-denaturing conditions (4 M urea), containing 5% (v/v) ampholytes pH 4-6.5 (GE Healthcare), at 1200 V for 6 hours. Proteins were stained with Coomassie Blue, the gels were scanned and subjected to densitometry using the ImageQuant program (HP Scanjet 4470c, Hewlett Packard). […] A total of 12 plasma samples (5 controls and 7 carriers TTR V30M) were analyzed in 3 IEF gels. For each treatment condition, a minimum of 4 samples from different donors were processed. The ratio of TTR tetramer over Total TTR (TTR tetramer+monomer) was calculated for each plasma sample and represented in FIG. 2.
The increase of the tetramer/total TTR ratio induced by the treatment with test compounds was pooled for all samples and represented in Table 4 as % of stabilization. These values were calculated after normalizing the tetramer/total TTR ratio obtained for each sample, with the ratio obtained for the non-treated plasma of the corresponding individual donor as described below: % stabilization=100×((ratio sample−ratio nt)/ratio nt). Where “ratio sample” is tetramer/total TTR ratio in the presence of compound; and “ratio nt” is tetramer/total TTR ratio of non-treated plasma from same donor.

[4] = inhibitor 0.5x[protein] (3.6 microM)
[5] = inhibitor 1x[protein] (7.2 microM)
[6] = inhibitor 3x[protein] (21.8 microM)

Row | RA (%) percentage of amyloidosis reduction (reduction of fibril formation rate at high inhibitor concentration) [1] | SMILES | % Fibril Reduction [2, 4] | % Fibril Reduction [2, 5] | % Fibril Reduction [2, 6] | % stabilization (average +/− sem) of TTR tetramer [3]
1 | 99% | O=C(O)c1ccc2nc(-c3cc(Cl)cc(Cl)c3)oc2c1 [Tafamidis, 2-(3,5-dichlorophenyl)-1,3-benzoxazole-6-carboxylic acid] |  |  |  | 16.4 +/− 5.49%
2 | 85.8% | Cc1ccc(C(=O)c2cc(O)c(O)c([N+](=O)[O-])c2)cc1 [Tolcapone, 3,4-dihydroxy-4′-methyl-5-nitrobenzophenone] | 79.3% | 84.3% | 100.0% | 29.9 +/− 7.64%

Row | SMILES | RA (%) percentage of amyloidosis reduction (reduction of fibril formation rate at high inhibitor concentration) [1] | % Fibril Reduction [2, 4] | % Fibril Reduction [2, 5] | % Fibril Reduction [2, 6] | % stabilization (average +/− sem) of TTR tetramer [3]
3 | O=C(O)c1cc(-c2ccc(F)cc2F)cc(I)c1O [Iododiflunisal] | 99.8% | 83.2% | 85.0% | 88.2% | 
